Measurements from article PMC11397358, “Cytotoxic Activity of Novel GnRH Analogs Conjugated with Mitoxantrone in Ovarian Cancer Cells” (Molecules, 2024).
Like-named read-outs stand apart in the source and are kept apart here.

Columns and labels:
SKOV-3 cells [1] = experiment: Cell proliferation (MTT) assay; type: cell-based, human; conditions: for IC50: Homo sapiens, 0.1 nM–10 µM, medium with 2% BCS, mean ± spread, Con-3 and mitoxantrone n = 3 experiments, Con-7 n = five
Experimental: The antiproliferative effects of GnRH-mitoxantrone conjugates, Con-3, and Con-7, were evaluated using the SKOV-3 cells. The Con-3 and Con-7 conjugates decreased the proliferation rate of SKOV-3 cells in a dose-dependent manner on days 2, 3, and 4 (Figure 3A–C).
Figure 3 Antiproliferative activity of the GnRH analogs. Decrease in the proliferation rate of the SKOV3 cells after their treatment with increasing concentrations of Con-3, Con-7, Con-P1 or Con-P2 for 2 days (A), 3 days (B) and 4 days (C) at 37 °C. At the end of the incubation, the cells were further incubated with 0.5 mg/mL MTT for 4 h at room temperature and the formed purple formazan crystals were quantified by measuring absorbance at 594 nm. The means ± S.E (triplicate determination) are shown from a representative experiment performed 3 times with similar results. The proliferation rates of cells treated with 1 μΜ of GnRH analogs were used to plot the graph D which depicts the decrease in cell growth over the incubation time (D). Statistical analysis was performed using one-way ANOVA.
At the end of the incubation, the cells were further incubated with 0.5 mg/mL MTT for 4 h at room temperature and the formed purple formazan crystals were quantified by measuring absorbance at 594 nm. The means ± S.E (triplicate determination) are shown from a representative experiment performed 3 times with similar results. […] Statistical analysis was performed using one-way ANOVA.
SKOV-3 cells (kindly provided by Prof. Dimitrios Mavroudis, University of Crete) were seeded into 96-well plates at a density of 6000 cells/well, in triplicates, and incubated overnight in Dulbecco’s modified Eagle’s medium/F12 (DMEM/F12) (1:1), containing 3.15 g/L glucose and 10% bovine calf serum (BCS, HyClone), at 37 °C and 5% CO2. At the end of the incubation, the culture medium was replaced with a fresh one containing 3.15 g/L glucose and 2% BCS, with or without increasing concentrations of GnRH analogs or mitoxantrone (0.1 nM–10 µM), and the cells were further incubated at 37 °C and 5% CO2 for 2, 3 and 4 days. Subsequently, (3-(4,5-dimethylthiazol-2-yl)-2,5- diphenyl tetrazolium bromide) (MTT) was added at a final concentration of 0.5 mg/mL, and the mixtures were incubated for 4 h at room temperature in the dark, allowing the viable cells to reduce the MTT to formazan crystals. The supernatants were removed, and the purple formazan crystals were dissolved in isopropanol containing 4% HCl (100 μL/well) by mixing thoroughly for 30 min in the dark, before the quantification of the absorbance at 594 nm using a Dynatech MicroElisa reader (Chantilly, VA, USA). The percentage of the proliferation rate (% proliferation rate) treated with a GnRH analog was determined based on the following equation: % proliferation rate = (absorbance of cells treated with a GnRH analog/absorbance of untreated cells) × 100. The % viability of the untreated cells (control) was defined as 100%. The % viabilities were analyzed by nonlinear regression analysis, using Prism 8.0 (GraphPad Software, Prism 8.0, San Diego, CA, USA).

SKOV-3 cells [2] = experiment: TMRE-based detection of mitochondrial membrane potential (ΔΨm); type: cell-based, human; conditions: 1 μM, 72 h, fresh compound every 24 h; three independent experiments; p < 0.01 vs untreated
Text: The apoptosis of SKOV3 cells by Con-3, Con-7 and mitoxantrone was further validated in a mitochondrial membrane potential (ΔΨm) assay, which utilizes the cell-permeable, cationic dye, tetramethylrhodamine ethyl ester (TMRE) to detect the ΔΨm. TMRE accumulates in healthy mitochondria with polarized membrane, but not in the mitochondria of apoptotic cells. Mitochondrial permeabilization and the loss of the mitochondrial transmembrane potential are associated with cell apoptosis and a drop in fluorescence of TMRE [40].
Figure 8 TMRE-based detection of mitochondrial membrane potential (ΔΨm) of SKOV-3 cells. The change in ΔΨm was detected using TMRE after treatment of SKOV3 cells with 1μM Con-3, Con-7 or mitoxantrone for 72 h. The TMRE fluorescence intensities are represented as histogram bars for results obtained in three independent experiments. […] The data are expressed as the mean ± SEM.
The reduced mitochondrial membrane potential (ΔΨm) that accompanies apoptosis was detected using the fluorescent dye, tetramethylrhodamine ethyl ester (TMRE) (Ex/Em: 530/580 nm), (Cayman, TMRE Mitochondrial Membrane Potential Assay Kit, Item No. 701310). SKOV-3 cells were grown on 60 mm tissue culture dishes to achieve ca. 60% confluence. Monolayers of these cells were treated for a total of 72 h using RPMI 1640 containing 1 μM each of Con-3, Con-7 or mitoxantrone. At the end of each consecutive 24 h treatment period, the test solutions were removed and replaced with new media containing fresh test compounds. After 72 h TMRE was added to each dish to a final concentration of 5 μM. After a 30 min exposure to TMRE, the media was removed so that the cell monolayers could be dispersed using 0.25% trypsin-EDTA. The resultant cell suspensions were subjected to centrifugation and repeated resuspension in a standard extracellular salt solution (SES). […] The TMRE fluorescence intensities monitored from the individual wells were measured using a Flexstation 3 microplate reader (Molecular Devices, Sunnyvale, CA, USA).

human GnRH-R = biological target: T1, human GnRH-R (Homo sapiens, UniProt P30968); experiment: Calcium-based (fura-2) kinetic assay of GnRH-R agonism; type: cell-based; conditions: HEK293 cells transfected with human GnRH-R; fura-2
T1 construct: host or cells: HEK293 (ATCC CRL-1573)
T1 sequence (P30968 1-328): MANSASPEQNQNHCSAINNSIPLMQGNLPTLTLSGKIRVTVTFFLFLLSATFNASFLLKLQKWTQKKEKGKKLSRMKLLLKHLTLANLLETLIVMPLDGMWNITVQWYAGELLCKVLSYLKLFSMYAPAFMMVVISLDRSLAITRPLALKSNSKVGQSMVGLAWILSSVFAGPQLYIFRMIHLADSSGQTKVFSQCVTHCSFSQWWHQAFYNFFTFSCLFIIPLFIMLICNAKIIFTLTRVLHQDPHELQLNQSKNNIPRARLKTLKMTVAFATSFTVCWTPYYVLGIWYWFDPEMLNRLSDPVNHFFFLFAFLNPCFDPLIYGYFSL
Experimental: For this purpose, fura-2-based kinetic assays to monitor the [Ca^2+] were performed in real-time using suspensions of HEK293 cells transiently transfected with the human GnRH-R (Figure 2A–I).
HEK293 cells transfected with the human GnRH-R served as a platform with which to test for agonist actions of individual test compounds. These cells were loaded with the ratiometric Ca^2+ indicator fura-2 so that the change in intracellular [Ca^2+] in response to agonist stimulation could be monitored in real time in a 96-well format. For these assays, the individual test compounds were administered at the 100 s time point.
Two days post-transfection, the HEK293 cells were harvested via trypsinization to obtain single-cell suspensions that were plated at 80% density on rat tail collagen-coated 96-well Costar 3904 plates for loading with the ratiometric Ca^2+ indicator fura-2. Measurements of the intracellular [Ca^2+] were performed using a Flexstation 3 microplate reader (Molecular Devices, Sunnyvale, CA, USA). Briefly, test solutions containing GnRH-R agonists were administered to individual wells of a 96-well plate using the automated pipetting feature of the Flexstation under computer control. […] Emitted light was detected at 505/15 nm, and the ratio of emission light intensity due to excitation at 335/9 and 375/9 nm was calculated. […]

| SMILES | percentage of the proliferation rate (SKOV-3 cells [1]; 1 μΜ, two days of treatment, untreated cells = 100%) [%] | TMRE accumulation / fluorescence (mitochondrial membrane potential), in words (SKOV-3 cells [2]) | GnRH-R agonist action (Ca2+ elevation), in words (human GnRH-R) | IC50 (SKOV-3 cells [1]; SK-OV-3, 48 h, 2 days at 37 °C, read-out: IC50, proliferation of SKOV-3 cells, day 2) [nM] | IC50 (SKOV-3 cells [1]; SK-OV-3, 72 h, 3 days at 37 °C, read-out: IC50, proliferation of SKOV-3 cells, day 3) [nM] | IC50 (SKOV-3 cells [1]; SK-OV-3, 96 h, 4 days at 37 °C, read-out: IC50, proliferation of SKOV-3 cells, day 4) [nM] |
| --- | --- | --- | --- | --- | --- | --- |
| CCNC(=O)[C@@H]1CCCN1C(=O)[C@H](CCCNC(=N)N)NC(=O)[C@H](CC(C)C)NC(=O)[C@@H](CSSCCC(=O)OCCNCCNc1ccc(NCCNCCO)c2c1C(=O)c1c(O)ccc(O)c1C2=O)NC(=O)[C@H](Cc1ccc(O)cc1)NC(=O)[C@H](CO)NC(=O)[C@H](Cc1c[nH]c2ccccc12)NC(=O)[C@H](Cc1c[nH]cn1)NC(=O)[C@@H]1CCC(=O)N1 [Con-3] | 64.4 | significantly reduced the accumulation of the TMRE | – | – | – | – |
| O=C1c2c(O)ccc(O)c2C(=O)c2c(NCCNCCO)ccc(NCCNCCO)c21 [mitoxantrone] | – | significantly reduced the accumulation of the TMRE | without effect | 480 ± 210 | 420 ± 90 | 280 ± 60 |
| CCNC(=O)[C@@H]1CCCN1C(=O)[C@H](CCCNC(=N)N)NC(=O)[C@H](CC(C)C)NC(=O)[C@@H](CCCCNC(=O)CCCCCNC(=O)CCSSCC(=O)OCCNCCNc1ccc(NCCNCCO)c2c1C(=O)c1c(O)ccc(O)c1C2=O)NC(=O)[C@H](Cc1ccc(O)cc1)NC(=O)[C@H](CO)NC(=O)[C@H](Cc1c[nH]c2ccccc12)NC(=O)[C@H](Cc1c[nH]cn1)NC(=O)[C@@H]1CCC(=O)N1 [Con-7] | – | significantly reduced the accumulation of the TMRE | – | – | – | – |
